What all share (assay type): cell-based
The test system of series [1] is L6. Briefly: Cytotoxicity against rat L6 cells assessed as reduction in cell viability at 10 to 40 uM after 16 hrs by MTT assay. The conditions noted are these: l6, 16 h.
In series [2] the test system is L6. In words: Activation of AMPK in rat L6 cells assessed as glucose uptake at 40 uM in presence of AMPK inhibitor compound C after 8 hrs.
For series [3], the system named is L6. In words: Activation of AMPK in rat L6 cells assessed as glucose uptake after 16 hrs.
For series [4], the system named is L6. Briefly: Activation of AMPK in rat L6 cells assessed as increase in AMPK phosphorylation at 40 uM by Western blot analysis.

Active and inactive are the calls of the source. No cut-off for these calls is given here.

For the molecule `CO/C(=C/C(=O)N1C(=O)C=C[C@@H]1CC(C)C)CCNC(=O)CCCCC(C)(C)C`, the values for the Activity result in series [1] and in series [3] were “Non-Toxic” and “Dose-dependent effect”, respectively. The outcome in series [2] was inactive. Moreover, in series [4], the outcome was Active.
On to `CO/C(=C/C(=O)N1C(=O)C=C[C@@H]1C)C/C(=C/Cl)CNC(=O)CCCCC(C)(C)C`, for which the Activity result in series [1] is “Non-Toxic”; in series [3] it was “Dose-dependent effect”.

For the origin of these results see ChEMBL document CHEMBL4251724, “Ypaoamides B and C, Linear Lipopeptides from an Okeania sp. Marine Cyanobacterium” (J Nat Prod, 2018).
